Assay [1] has as its target T1, human squalene synthase (HsSQS) (Homo sapiens, UniProt P37268).
T1 sequence (P37268 1-417): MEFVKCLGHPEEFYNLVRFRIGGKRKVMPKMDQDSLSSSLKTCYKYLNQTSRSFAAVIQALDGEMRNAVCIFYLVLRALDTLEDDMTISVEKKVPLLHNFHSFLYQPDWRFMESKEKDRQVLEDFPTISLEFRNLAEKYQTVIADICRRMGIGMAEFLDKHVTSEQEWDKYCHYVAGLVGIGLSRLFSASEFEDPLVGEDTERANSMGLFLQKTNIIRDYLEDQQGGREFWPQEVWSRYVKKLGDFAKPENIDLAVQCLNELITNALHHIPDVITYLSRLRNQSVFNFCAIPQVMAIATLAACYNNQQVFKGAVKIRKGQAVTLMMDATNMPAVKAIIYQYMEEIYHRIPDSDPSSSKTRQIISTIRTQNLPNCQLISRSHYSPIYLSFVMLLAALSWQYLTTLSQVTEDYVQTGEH
Briefly: enzyme inhibition assay, recombinant SQS. In kind it is biochemical.

The target of assay [2] is Trypanosoma cruzi squalene synthase (TcSQS) (Trypanosoma cruzi, UniProt Q4CWB4). The assay can be described thus: enzyme inhibition assay, recombinant SQS. In kind it is biochemical.

Turning to `CC(C)=CCC/C(C)=C\CNCCNC1C2CC3CC(C2)CC1C3` (centres unmarked) [compound 3, SQ-109], the Ki was 740 nM in assay [1] and 1200 nM in assay [2].
